Data from article PMC6017322, “Triterpene Acids from Frankincense and Semi-Synthetic Derivatives That Inhibit 5-Lipoxygenase and Cathepsin G” (Molecules : A Journal of Synthetic Chemistry and Natural …, 2018).

Key:
[1] = target: T1, cathepsin G (Homo sapiens, UniProt P08311); assay: Cathepsin G activity in a cell-free assay (Suc-AAPF-pNA substrate); assay type: biochemical; conditions: for Cat. G IC50 / IC50 / remaining activity at 10 µM: cell-free; for Cat. G IC50 / IC50: purified cathepsin G from human neutrophils; for IC50: read-out: Cat. G IC50 (converted); for remaining activity at 10 µM: residual activity at 10 µM, mean ± SEM, 3–4 experiments, read-out: Cat. G Activity [% Control]
T1 construct: purified cathepsin G (0.2 µg) from human neutrophils; purchased Calbiochem; host or cells: human neutrophils (natural source)
T1 sequence (P08311 21-244 limits assumed): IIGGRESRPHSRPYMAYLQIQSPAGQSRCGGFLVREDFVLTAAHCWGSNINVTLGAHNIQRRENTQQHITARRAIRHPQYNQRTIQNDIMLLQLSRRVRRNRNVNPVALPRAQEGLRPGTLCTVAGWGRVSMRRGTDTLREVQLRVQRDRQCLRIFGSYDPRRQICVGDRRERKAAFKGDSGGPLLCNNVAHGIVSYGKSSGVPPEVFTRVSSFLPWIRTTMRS
Procedure: Commercially available purified cathepsin G (0.2 µg) from human neutrophils (Calbiochem, La Jolla, CA, USA) was mixed with test compounds or DMSO (vehicle control) in 200 µL 0.1 M HEPES pH 7.4, 0.5 M NaCl, and 10% DMSO in a 96-well plate (Greiner Bio-One, Frickenhausen, Germany) and pre-incubated for 20 min at 25 °C. Then, N-Suc–Ala–Ala–Pro–Phe–pNA (Suc–AAPF–pNA) (1 mM) as substrate for cathespin G was added, and the absorbance was measured at 410 nm at 25 °C using a Victor^2 plate reader (PerkinElmer, Waltham, MA, USA).

[2] = target: T2, 5-LO (Homo sapiens, UniProt P09917); assay: 5-LO activity in a cell-free assay (isolated human recombinant 5-LO, 20 µM arachidonic acid); assay type: biochemical; design: made in house; host or cells: Escherichia coli BL21 (pT3-5-LO plasmid); conditions: for IC50: isolated human 5-LO; for IC50 / remaining activity at 10 µM / 5-LO Activity [% Control] cell-free: 20 µM arachidonic acid; for remaining activity at 10 µM / 5-LO Activity [% Control] cell-free: residual activity at 10 µM, isolated 5-LO, mean ± SEM, 3–4 experiments; for remaining activity at 10 µM: read-out: 5-LO Activity [% Control] cell-free; for inhibition at 10 µM / inhibition of 5-LO activity, cell-free: at 10 µM
T2 sequence (P09917 1-674): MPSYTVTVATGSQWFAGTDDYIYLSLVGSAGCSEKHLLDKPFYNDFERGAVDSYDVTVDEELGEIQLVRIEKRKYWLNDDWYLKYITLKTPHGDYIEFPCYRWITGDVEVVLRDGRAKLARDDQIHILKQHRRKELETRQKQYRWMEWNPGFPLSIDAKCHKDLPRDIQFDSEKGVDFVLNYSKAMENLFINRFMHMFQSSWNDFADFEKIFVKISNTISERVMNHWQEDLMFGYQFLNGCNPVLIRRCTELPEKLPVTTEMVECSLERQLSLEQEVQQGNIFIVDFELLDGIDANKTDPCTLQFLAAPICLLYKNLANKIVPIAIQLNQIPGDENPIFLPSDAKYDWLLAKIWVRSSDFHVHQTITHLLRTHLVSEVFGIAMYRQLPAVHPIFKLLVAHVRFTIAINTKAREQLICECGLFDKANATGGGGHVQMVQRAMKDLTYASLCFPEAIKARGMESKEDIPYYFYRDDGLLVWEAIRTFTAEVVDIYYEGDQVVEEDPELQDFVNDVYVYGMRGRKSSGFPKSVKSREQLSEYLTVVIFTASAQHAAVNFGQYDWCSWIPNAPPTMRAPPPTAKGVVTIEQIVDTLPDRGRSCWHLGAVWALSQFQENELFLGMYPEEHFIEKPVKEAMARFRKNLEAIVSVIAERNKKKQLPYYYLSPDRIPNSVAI
Procedure: Human recombinant 5-LO was expressed in Eschericha coli BL21 transformed with pT3-5-LO plasmid at 30 °C overnight, as described elsewhere. Cells were lysed in lysis buffer containing triethanolamine (50 mM, pH 8.0), EDTA (5 mM), phenylmethanesulfonyl fluoride (1 mM), soybean trypsin inhibitor (60 µg/mL), dithiothreitol (2 mM), and lysozyme (1 mg/mL), and homogenized by sonification (3 × 15 s). 5-LO was then purified from 40,000× g supernatant (20 min, 4 °C) using an ATP-agarose column (Sigma-Aldrich, Deisenhofen, Germany), diluted with PBS buffer containing 1 mM EDTA, and immediately used for 5-LO activity assays.
To determine 5-LO activity, aliquots of purified 5-LO (0.5 µg 5-LO in 1 mL PBS plus 1 mM EDTA) were pre-incubated with the test compounds or vehicle (0.1% dimethyl sulfoxide, DMSO) on ice for 15 min, pre-warmed for 30 s at 37 °C in a water bath, and then stimulated with 20 µM AA and CaCl2 2 mM for 10 min at 37 °C. The reaction was stopped with one volume of ice-cold methanol and 5-LO products (including all-trans-isomers of LTB4 and 5-hydroperoxyeicosatetraenoic acid (5-HpETE), as well as its corresponding alcohol 5-hydroxyeicosatetraenoic acid (5-HETE)) were analyzed by reversed phase (RP)-HPLC (Elite LaChrom, VWR, Radnor, PA, USA) as previously described. In brief, acidified PBS and 200 ng of internal PGB1 standard were added and solid phase extraction using C18 RP-columns (100 mg, UCT, Bristol, PA, USA) was performed. After elution with methanol, samples were analyzed by RP-HPLC using a C-18 Radial-PAK column (Waters, Eschborn, Germany).

[3] = target: T2, 5-LO; assay: 5-LO product formation in intact human neutrophils stimulated with A23187 (cell-based); design: 5-LO product formation in intact human neutrophils; endogenous in cells; host or cells: freshly isolated human peripheral blood neutrophils; conditions: for IC50: human neutrophils stimulated with A23187; for remaining activity at 10 µM / 5-LO Activity [% Control] cell-based: residual activity at 10 µM, A23187, mean ± SEM, 3–4 experiments; for remaining activity at 10 µM: read-out: 5-LO Activity [% Control] cell-based
Procedure: Neutrophils were isolated from peripheral blood (University Hospital Tübingen, Germany), collected from fasted healthy adult donors that were informed about the aim of the study and gave written consent. Leukocyte concentrates were obtained by centrifugation (4000× g, 20 min, 20 °C) of heparinized blood preparation, and neutrophils were immediately isolated as described before. Briefly, leukocyte concentrates were subjected to dextran sedimentation and centrifuged on lymphocyte separation medium (LSM 1077, PAA, Coelbe, Germany). For isolation of pelleted neutrophils, remaining erythrocytes were removed by hypotonic lysis, washed twice with ice-cold phosphate-buffered saline (PBS) and finally resuspended in PBS buffer containing 0.1% glucose and CaCl2 (1 mM) (PGC buffer).
5-LO product formation in intact human neutrophils was performed using 5 × 10^6 freshly isolated cells that were resuspended in 1 mL PGC buffer. Cells were pre-incubated with the test compounds or vehicle (0.1% DMSO) at 37 °C for 15 min prior to stimulation with 2.5 µM Ca^2+-ionophore A23187 for 10 min (37 °C). 5-LO product formation was stopped by addition of one volume of ice-cold methanol, samples were subjected to solid phase extraction after addition of 200 ng PGB1 as internal standard, and 5-LO products (LTB4, its trans-isomers and 5-HETE) were analyzed by RP-HPLC as described above.

Row | Structure (SMILES) | Cat. G IC50 [1] | IC50 [1] [µM] | remaining activity at 10 µM [1] [%] | IC50 [2] [µM] | remaining activity at 10 µM [2] [%] | IC50 [3] [µM] | remaining activity at 10 µM ([3]; human neutrophils) [%] | inhibition at 10 µM [2] [%] | inhibition at 10 µM ([3]; at 10 µM, human neutrophils, read-out: inhibition of 5-LO activity in intact cells) [%] | 5-LO Activity [% Control] cell-based ([3]; human neutrophils) | inhibition of 5-LO activity, cell-free [2] | 5-LO Activity [% Control] cell-free [2] | inhibition of 5-LO activity in intact cells ([3]; at 10 µM, human neutrophils) | inhibition at 10 µM ([1]; at 10 µM) [%] | inhibition of cathepsin G ([1]; at 10 µM)
1 | CC(=O)O[C@@H]1CC[C@@]2(C)[C@@H](CC[C@]3(C)[C@@H]2C(=O)C=C2[C@@H]4[C@@H](C)[C@H](C)CC[C@]4(C)CC[C@]23C)[C@@]1(C)C(=O)O [compound 1, 3-O-acteyl-11-keto-β-BA] | submicromolar | 0.6 | 14.8 ± 0.9 | 3 | 40.7 ± 10.8 | 3 | 23.1 ± 9.8 |  |  |  |  |  |  |  | 
2 | C[C@H]1[C@H](C)CC[C@]2(C)CC[C@]3(C)C(=CC(=O)[C@@H]4[C@@]5(C)CC[C@@H](O)[C@](C)(C(=O)O)[C@@H]5CC[C@]43C)[C@H]12 [compound 2, 11-keto-β-BA] |  | 4.1 | 29.4 ± 3.5 | 4.6 | 31.1 ± 5 | 3.5 | 25.7 ± 7.3 |  |  |  |  |  |  |  | 
3 | C[C@H]1[C@H](C)CC[C@]2(C)CC[C@]3(C)C(=CC[C@@H]4[C@@]5(C)CC[C@@H](O)[C@](C)(C(=O)O)[C@@H]5CC[C@]43C)[C@H]12 [compound 3, β-BA] | submicromolar | 0.5 | 27.7 ± 1.8 |  | 78.7 ± 12.6 |  | 53 ± 7.6 | 21 to 26 | 47 |  |  |  |  |  | 
4 | CC(=O)O[C@@H]1CC[C@@]2(C)[C@@H](CC[C@]3(C)[C@@H]2CC=C2[C@@H]4[C@@H](C)[C@H](C)CC[C@]4(C)CC[C@]23C)[C@@]1(C)C(=O)O [compound 4, 3-O-acteyl-β-BA] |  | 2 | 28.1 ± 4.9 |  | 73.5 ± 13.3 |  |  | 21 to 26 |  | n.i. |  |  |  |  | 
5 | C=C(C)[C@@H]1CC[C@]2(C)[C@H](CC=C3[C@@H]4[C@@H](C)[C@H](C)CC[C@]4(C)CC[C@]32C)[C@@]1(C)CCC(=O)O [compound 5] |  |  | 69.8 ± 8 |  |  |  | 74.5 ± 3.7 |  |  |  | failed in this respect | n.i. | hardly active |  | 
6 | CC(C)[C@@H]1CC[C@]2(C)[C@H](CC=C3[C@@H]4[C@@H](C)[C@H](C)CC[C@]4(C)CC[C@]32C)[C@@]1(C)CCC(=O)O [compound 6] |  |  | 70.4 ± 3.9 |  |  |  |  |  |  | n.i. | failed in this respect | n.i. | hardly active |  | 
7 | CC(C)[C@@H]1CC[C@]2(C)[C@H](C(=O)C=C3[C@@H]4[C@@H](C)[C@H](C)CC[C@]4(C)CC[C@]32C)[C@@]1(C)CCC(=O)O [compound 7] |  |  | 53.8 ± 8.1 |  | 73 ± 8.1 | 4.3 | 7.1 ± 3.3 | 27 |  |  |  |  |  |  | 
8 | C=C(C)[C@@H]1CC[C@]2(C)CC[C@]3(C)[C@H](CC[C@@H]4[C@@]5(C)CC[C@@H](O)[C@](C)(C(=O)O)[C@@H]5CC[C@]43C)[C@@H]12 [compound 9] |  |  | 58.1 ± 3.6 |  | 76.6 ± 12.2 | 4 | 36.2 ± 5.1 |  |  |  | did not markedly inhibit 5-LO |  |  | 27 to 44 | 
9 | C=C(C)[C@@H]1CC[C@]2(C)CC[C@]3(C)[C@H](CC[C@@H]4[C@@]5(C)CC[C@@H](OC(C)=O)[C@](C)(C(=O)O)[C@@H]5CC[C@]43C)[C@@H]12 [compound 10] |  | 7.5 | 35.9 ± 2.5 |  |  |  | 88.7 ± 6.7 |  |  |  | did not markedly inhibit 5-LO | n.i. |  | > 50 | 
10 | C=C(C)[C@@H]1CC[C@]2(CO)CC[C@]3(C)[C@H](CC[C@@H]4[C@@]5(C)CC[C@@H](O)[C@](C)(C(=O)O)[C@@H]5CC[C@]43C)[C@@H]12 [compound 11] |  |  | 68.1 ± 6.5 | 10 | 52.7 ± 7.1 | 4.6 | 24 ± 7.2 |  |  |  |  |  |  | 27 to 44 | 
11 | C=C(C)[C@@H]1CC[C@]2(CO)CC[C@]3(C)[C@H](CC[C@@H]4[C@@]5(C)CC[C@@H](OC(C)=O)[C@](C)(C(=O)O)[C@@H]5CC[C@]43C)[C@@H]12 [compound 12] |  |  | 87.2 ± 2.5 | 8.3 | 41.8 ± 3.4 | 5.1 | 28.4 ± 11.1 |  |  |  |  |  |  |  | failed to markedly inhibit cathepsin G
